According to ChEMBL document CHEMBL3797167, “Development of a peptide-based inducer of nuclear receptors degradation” (Bioorg Med Chem Lett, 2016):
Activity calls are given as the source filed them. No cut-off for these calls is given here.

Legend:
[1] = molecular target: T1, Estrogen receptor (Homo sapiens) (UniProt P03372); assay: Induction of ERalpha degradation in human MCF7 cells at 3 to 10 uM after 6 hrs by Western blot analysis; assay type: cell-based
T1 sequence (whole entry): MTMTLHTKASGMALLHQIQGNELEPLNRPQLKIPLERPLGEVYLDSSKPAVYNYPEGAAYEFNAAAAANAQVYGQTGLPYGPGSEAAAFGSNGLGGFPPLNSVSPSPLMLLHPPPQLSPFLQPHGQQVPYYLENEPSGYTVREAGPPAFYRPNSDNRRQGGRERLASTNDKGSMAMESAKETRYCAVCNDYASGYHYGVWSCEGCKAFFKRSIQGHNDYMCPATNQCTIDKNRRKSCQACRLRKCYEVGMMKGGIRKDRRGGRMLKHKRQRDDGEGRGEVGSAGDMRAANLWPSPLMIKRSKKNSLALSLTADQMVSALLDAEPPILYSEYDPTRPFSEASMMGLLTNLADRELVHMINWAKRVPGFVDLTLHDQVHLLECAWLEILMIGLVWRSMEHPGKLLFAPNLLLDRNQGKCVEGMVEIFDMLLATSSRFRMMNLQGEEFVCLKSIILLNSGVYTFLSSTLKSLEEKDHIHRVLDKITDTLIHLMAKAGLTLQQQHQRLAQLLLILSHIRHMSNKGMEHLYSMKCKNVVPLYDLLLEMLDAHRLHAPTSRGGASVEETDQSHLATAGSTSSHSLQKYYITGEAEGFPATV

[2] = test system: MCF7; assay: Cytotoxicity against human MCF7 cells at 10 uM after 6 hrs; assay type: cell-based; settings: mcf7, 6 h
[3] = molecular target: T1, Estrogen receptor (Homo sapiens); assay: Induction of ERalpha degradation in human MCF7 cells assessed as ERalpha/actin ratio level at 10 uM after 6 hrs by Western blot analysis (reference value: 100%); assay type: cell-based
[4] = molecular target: T1, Estrogen receptor (Homo sapiens); assay: Induction of ERalpha degradation in human MCF7 cells assessed as ERalpha/actin ratio level at 5 uM after 6 hrs by Western blot analysis (reference value: 100%); assay type: cell-based
[5] = molecular target: T1, Estrogen receptor (Homo sapiens); assay: Induction of ERalpha degradation in human MCF7 cells assessed as ERalpha/actin ratio level at 3 uM after 6 hrs by Western blot analysis (reference value: 100%); assay type: cell-based
[6] = molecular target: T1, Estrogen receptor (Homo sapiens); assay: Induction of ERalpha degradation in human MCF7 cells at 0.3 to 3 uM after 6 hrs by Western blot analysis; assay type: cell-based
[7] = molecular target: T1, Estrogen receptor (Homo sapiens); assay: Induction of ERalpha degradation in human MCF7 cells assessed as ERalpha/actin ratio level at 0.3 uM after 6 hrs by Western blot analysis (reference value: 100%); assay type: cell-based
[8] = molecular target: T1, Estrogen receptor (Homo sapiens); assay: Induction of ERalpha degradation in human MCF7 cells assessed as ERalpha/actin ratio level at 1 uM after 6 hrs by Western blot analysis (reference value: 100%); assay type: cell-based
[9] = molecular target: T1, Estrogen receptor (Homo sapiens); assay: Induction of ERalpha degradation in human MCF7 cells at 0.1 to 1 uM after 6 hrs by Western blot analysis; assay type: cell-based
[10] = molecular target: Baculoviral IAP repeat-containing protein 2 (Homo sapiens) (UniProt Q13490); assay: Induction of cIAP1 degradation in human MCF7 cells at 1 uM after 6 hrs by Western blot analysis; assay type: cell-based
[11] = molecular target: T1, Estrogen receptor (Homo sapiens); assay: Induction of ERalpha degradation in human MCF7 cells assessed as ERalpha/actin ratio level at 0.1 uM after 6 hrs by Western blot analysis (reference value: 100%); assay type: cell-based
[12] = molecular target: T1, Estrogen receptor (Homo sapiens); assay: Induction of ERalpha degradation in human MCF7 cells after 6 hrs by Western blot analysis; assay type: cell-based
[13] = molecular target: Baculoviral IAP repeat-containing protein 2 (Homo sapiens) (UniProt Q13490); assay: Induction of cIAP1 degradation in human MCF7 cells after 6 hrs by Western blot analysis; assay type: cell-based
[14] = test system: MCF7; assay: Cytotoxicity against human MCF7 cells at >6 uM after 6 hrs; assay type: cell-based; settings: mcf7, 6 h
[15] = molecular target: T2, Androgen receptor (Homo sapiens) (UniProt P10275); assay: Induction of AR degradation in human MCF7 cells at 3 to 6 uM after 6 hrs by Western blot analysis; assay type: cell-based
T2 sequence (whole entry): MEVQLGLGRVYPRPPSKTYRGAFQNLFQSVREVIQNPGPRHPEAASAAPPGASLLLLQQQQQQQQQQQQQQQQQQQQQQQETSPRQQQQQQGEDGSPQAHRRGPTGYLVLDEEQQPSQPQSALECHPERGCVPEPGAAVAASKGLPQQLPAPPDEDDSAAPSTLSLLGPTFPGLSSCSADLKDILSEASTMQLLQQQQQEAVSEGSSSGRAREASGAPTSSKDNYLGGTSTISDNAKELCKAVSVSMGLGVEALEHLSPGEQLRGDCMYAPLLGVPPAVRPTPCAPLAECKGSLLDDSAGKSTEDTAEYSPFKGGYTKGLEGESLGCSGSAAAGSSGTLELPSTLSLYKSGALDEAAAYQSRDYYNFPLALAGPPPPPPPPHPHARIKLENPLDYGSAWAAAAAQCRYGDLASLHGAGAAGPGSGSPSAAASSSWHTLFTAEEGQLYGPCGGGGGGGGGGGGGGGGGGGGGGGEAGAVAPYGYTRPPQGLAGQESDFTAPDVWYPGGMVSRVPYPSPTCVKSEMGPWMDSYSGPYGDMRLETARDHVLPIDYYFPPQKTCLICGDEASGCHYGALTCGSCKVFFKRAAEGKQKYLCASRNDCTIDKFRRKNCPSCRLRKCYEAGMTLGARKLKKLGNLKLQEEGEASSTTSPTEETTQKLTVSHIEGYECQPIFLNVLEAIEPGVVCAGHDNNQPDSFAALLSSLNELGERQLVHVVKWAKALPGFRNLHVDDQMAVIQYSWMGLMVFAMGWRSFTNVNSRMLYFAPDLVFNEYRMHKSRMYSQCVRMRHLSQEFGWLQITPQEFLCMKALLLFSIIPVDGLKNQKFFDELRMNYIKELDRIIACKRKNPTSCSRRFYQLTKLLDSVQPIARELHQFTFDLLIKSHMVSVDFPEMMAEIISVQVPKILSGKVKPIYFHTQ

[16] = molecular target: T2, Androgen receptor (Homo sapiens); assay: Induction of AR degradation in human MCF7 cells at 3 to 6 uM after 6 hrs by Western blot in presence of MG132; assay type: cell-based
[17] = molecular target: T3, Aryl hydrocarbon receptor (Homo sapiens, UniProt P35869); assay: Induction of AhR degradation in human MCF7 cells at 3 to 6 uM after 6 hrs by Western blot analysis; assay type: cell-based; settings: mcf7, 6 h
T3 sequence (P35869 whole entry): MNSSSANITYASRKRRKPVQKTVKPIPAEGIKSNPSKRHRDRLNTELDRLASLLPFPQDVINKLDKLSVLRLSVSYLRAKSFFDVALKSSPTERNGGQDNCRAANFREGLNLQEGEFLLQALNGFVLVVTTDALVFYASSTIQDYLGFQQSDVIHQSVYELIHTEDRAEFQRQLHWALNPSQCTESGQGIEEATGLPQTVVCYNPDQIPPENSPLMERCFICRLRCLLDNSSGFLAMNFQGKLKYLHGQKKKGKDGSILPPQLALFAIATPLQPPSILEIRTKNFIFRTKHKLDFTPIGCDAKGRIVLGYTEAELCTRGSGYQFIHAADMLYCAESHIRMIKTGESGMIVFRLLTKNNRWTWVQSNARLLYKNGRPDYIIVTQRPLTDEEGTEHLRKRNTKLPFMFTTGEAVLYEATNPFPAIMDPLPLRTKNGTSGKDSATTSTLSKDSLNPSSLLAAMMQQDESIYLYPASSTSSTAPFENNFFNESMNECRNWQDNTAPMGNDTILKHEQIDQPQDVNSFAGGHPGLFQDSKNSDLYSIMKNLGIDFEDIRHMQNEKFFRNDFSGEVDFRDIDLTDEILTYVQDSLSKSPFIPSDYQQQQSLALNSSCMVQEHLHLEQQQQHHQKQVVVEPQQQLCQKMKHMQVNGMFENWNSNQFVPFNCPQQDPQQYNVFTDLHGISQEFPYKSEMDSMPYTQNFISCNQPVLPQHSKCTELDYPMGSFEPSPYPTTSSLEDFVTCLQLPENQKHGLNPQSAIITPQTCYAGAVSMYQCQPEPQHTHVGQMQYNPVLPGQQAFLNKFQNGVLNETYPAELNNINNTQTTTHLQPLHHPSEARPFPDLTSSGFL

[18] = molecular target: T1, Estrogen receptor (Homo sapiens); assay: Induction of ERalpha degradation in human MCF7 cells assessed as ERalpha/actin ratio level at 4.5 uM after 6 hrs by Western blot analysis (reference value: 100%); assay type: cell-based
[19] = molecular target: T1, Estrogen receptor (Homo sapiens); assay: Induction of ERalpha degradation in human MCF7 cells assessed as ERalpha/actin ratio level at 6 uM after 6 hrs by Western blot analysis (reference value: 100%); assay type: cell-based
[20] = molecular target: T2, Androgen receptor (Homo sapiens); assay: Induction of AR degradation in human MCF7 cells assessed as AR/actin ratio level at 3 uM after 6 hrs by Western blot analysis (reference value: 100%); assay type: cell-based
[21] = molecular target: T2, Androgen receptor (Homo sapiens); assay: Induction of AR degradation in human MCF7 cells assessed as AR/actin ratio level at 4.5 uM after 6 hrs by Western blot analysis (reference value: 100%); assay type: cell-based
[22] = molecular target: T2, Androgen receptor (Homo sapiens); assay: Induction of AR degradation in human MCF7 cells assessed as AR/actin ratio level at 6 uM after 6 hrs by Western blot analysis (reference value: 100%); assay type: cell-based
[23] = molecular target: Aryl hydrocarbon receptor (Homo sapiens) (UniProt P35869); assay: Induction of AhR degradation in human MCF7 cells assessed as AhR/actin ratio level at 3 uM after 6 hrs by Western blot analysis (reference value: 100%)
[24] = molecular target: Aryl hydrocarbon receptor (Homo sapiens) (UniProt P35869); assay: Induction of AhR degradation in human MCF7 cells assessed as AhR/actin ratio level at 6 uM after 6 hrs by Western blot analysis (reference value: 100%)
[25] = molecular target: Aryl hydrocarbon receptor (Homo sapiens) (UniProt P35869); assay: Induction of AhR degradation in human MCF7 cells assessed as AhR/actin ratio level at 4.5 uM after 6 hrs by Western blot analysis (reference value: 100%)

Sequence of Baculoviral IAP repeat-containing protein 2 (Homo sapiens) (Q13490 whole entry): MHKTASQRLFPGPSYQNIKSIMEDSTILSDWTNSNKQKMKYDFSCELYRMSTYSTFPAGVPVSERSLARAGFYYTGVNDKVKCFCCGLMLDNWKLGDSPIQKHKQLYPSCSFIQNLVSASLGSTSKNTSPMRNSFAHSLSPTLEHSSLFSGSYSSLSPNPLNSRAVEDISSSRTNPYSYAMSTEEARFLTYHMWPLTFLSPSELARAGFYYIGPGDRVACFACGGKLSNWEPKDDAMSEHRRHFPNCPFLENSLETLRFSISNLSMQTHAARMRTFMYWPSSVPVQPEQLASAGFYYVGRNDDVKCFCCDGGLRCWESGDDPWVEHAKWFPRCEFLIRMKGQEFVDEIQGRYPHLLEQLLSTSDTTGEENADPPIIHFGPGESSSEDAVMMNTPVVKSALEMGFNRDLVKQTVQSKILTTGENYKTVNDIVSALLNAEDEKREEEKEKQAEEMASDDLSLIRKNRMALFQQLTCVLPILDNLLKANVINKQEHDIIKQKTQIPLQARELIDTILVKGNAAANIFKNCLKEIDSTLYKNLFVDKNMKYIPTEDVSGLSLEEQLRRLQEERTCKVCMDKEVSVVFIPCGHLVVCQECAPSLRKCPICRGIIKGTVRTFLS

## CC[C@H](C)[C@H]1NC(=O)[C@@H](NC(=O)[C@H](CCCNC(=N)N)NC(=O)COCCOCCNC(=O)[C@@H](NC(=O)[C@@H]2CCCN2C(=O)[C@H](NC(=O)[C@H](C)NC)C2CCCCC2)C(c2ccccc2)c2ccccc2)CSSC[C@H](C(=O)N[C@H](CCCNC(=N)N)C(=O)N[C@H](CC(C)(C)C)C(=O)N[C@H](CC(C)C)C(=O)N[C@H](CCC(N)=O)C(=O)NCC(=O)NCC(=O)NCC(=O)N[C@H](CCCNC(=N)N)C(=O)N[C@H](CCCNC(=N)N)C(=O)N[C@H](CCCNC(=N)N)C(=O)N[C@H](CCCNC(=N)N)C(=O)N[C@H](CCCNC(=N)N)C(=O)N[C@H](CCCNC(=N)N)C(=O)N[C@@H](CCCNC(=N)N)C(N)=O)NC(=O)[C@@H](CC(C)C)NC1=O
[1]
  Activity: inactive
[2]
  Activity: Toxic
[3]
  Activity: 236%
[4]
  Activity: 99%
[5]
  Activity: 96%

## CC[C@H](C)[C@H]1NC(=O)[C@@H](NC(=O)[C@@H](N)CCCCNC(=O)[C@@H](NC(=O)[C@@H]2CCCN2C(=O)[C@H](NC(=O)[C@H](C)NC)C2CCCCC2)C(c2ccccc2)c2ccccc2)CSSC[C@H](C(=O)N[C@H](CCCNC(=N)N)C(=O)N[C@H](CC(C)(C)C)C(=O)N[C@H](CC(C)C)C(=O)N[C@H](CCC(N)=O)C(=O)NCC(=O)NCC(=O)NCC(=O)N[C@H](CCCNC(=N)N)C(=O)N[C@H](CCCNC(=N)N)C(=O)N[C@H](CCCNC(=N)N)C(=O)N[C@H](CCCNC(=N)N)C(=O)N[C@H](CCCNC(=N)N)C(=O)N[C@H](CCCNC(=N)N)C(=O)N[C@@H](CCCNC(=N)N)C(N)=O)NC(=O)[C@@H](CC(C)C)NC1=O
[6]
  Activity: inactive
[5]
  Activity: 95%
[7]
  Activity: 109%
[8]
  Activity: 114%

## CC[C@H](C)[C@H]1NC(=O)[C@@H](NC(=O)[C@H](N)CCCCNC(=O)COCCOCCNC(=O)[C@@H](NC(=O)[C@@H]2CCCN2C(=O)[C@H](NC(=O)[C@H](C)NC)C2CCCCC2)C(c2ccccc2)c2ccccc2)CSSC[C@H](C(=O)N[C@H](CCCNC(=N)N)C(=O)N[C@H](CC(C)(C)C)C(=O)N[C@H](CC(C)C)C(=O)N[C@H](CCC(N)=O)C(=O)NCC(=O)NCC(=O)NCC(=O)N[C@H](CCCNC(=N)N)C(=O)N[C@H](CCCNC(=N)N)C(=O)N[C@H](CCCNC(=N)N)C(=O)N[C@H](CCCNC(=N)N)C(=O)N[C@H](CCCNC(=N)N)C(=O)N[C@H](CCCNC(=N)N)C(=O)N[C@@H](CCCNC(=N)N)C(N)=O)NC(=O)[C@@H](CC(C)C)NC1=O
[9]
  Activity: inactive
[10]
  Activity: Active
[7]
  Activity: 100%
[8]
  Activity: 92%
[11]
  Activity: 105%

## CC[C@H](C)[C@H]1NC(=O)[C@@H](NC(=O)[C@@H](N)CCCCNC(=O)COCCOCCNC(=O)COCCOCCNC(=O)[C@@H](NC(=O)[C@@H]2CCCN2C(=O)[C@H](NC(=O)[C@H](C)NC)C2CCCCC2)C(c2ccccc2)c2ccccc2)CSSC[C@H](C(=O)N[C@H](CCCNC(=N)N)C(=O)N[C@H](CC(C)(C)C)C(=O)N[C@H](CC(C)C)C(=O)N[C@H](CCC(N)=O)C(=O)NCC(=O)NCC(=O)NCC(=O)N[C@H](CCCNC(=N)N)C(=O)N[C@H](CCCNC(=N)N)C(=O)N[C@H](CCCNC(=N)N)C(=O)N[C@H](CCCNC(=N)N)C(=O)N[C@H](CCCNC(=N)N)C(=O)N[C@H](CCCNC(=N)N)C(=O)N[C@@H](CCCNC(=N)N)C(N)=O)NC(=O)[C@@H](CC(C)C)NC1=O
[12]
  Activity: Dose-dependent effect
[13]
  Activity: Dose-dependent effect
[14]
  Activity: Toxic
[15]
  Activity: Active
[16]
  Activity: inactive
[17]
  Activity: Not Active
[5]
  Activity: 87%
[18]
  Activity: 87%
[19]
  Activity: 77%
[20]
  Activity: 77%
[21]
  Activity: 72%
[22]
  Activity: 57%
[23]
  Activity: 173%
[24]
  Activity: 137%
[25]
  Activity: 178%
